Results as given in article PMC7576618 (British Journal of Clinical Pharmacology, 2020).

Test system: healthy subjects
Assay: SAD study: safety and tolerability
Type: in vivo, human
[1] = SAD Parts A and C, fasted conditions (total TS‐134)
[2] = SAD Parts A and C, fed conditions (total TS‐134)
[3] = SAD Parts A and C, 5 mg fasted (n = 6)
[4] = SAD Parts A and C, 10 mg fasted (n = 6)
[5] = SAD Parts A and C, 10 mg fed (n = 5)
[6] = SAD Parts A and C, 20 mg fasted (n = 7)
[7] = SAD Parts A and C, 20 mg fed (n = 3)
[8] = SAD Parts A and C, Total TS‐134 fasted (n = 19)
[9] = SAD Parts A and C, Total TS‐134 fed (n = 8)
[10] = SAD, 20 mg fasted treatment group

For `CC(C)[C@@H]1CC[C@@H](C)C[C@H]1OC(=O)O[C@@H](C)OC(=O)[C@H]1[C@@H]2C[C@H](F)[C@@](N)(C(=O)O)[C@@H]21.O=S(=O)(O)c1ccccc1` [TS‐134, (1S,2S,3S,5R,6S)‐2‐amino‐3‐ fluoro‐6‐({(1S)‐1‐[({[(1R,2S,5R)‐5‐methyl‐2‐(propan‐2‐yl)cyclohexyl]oxy}carbonyl)oxy]ethoxy}carbonyl)bicyclo[3.1.0]hexane‐2‐carboxylic acid monobenzenesulfonate], the Headache (SAD Part B, 10 mg fed (n = 8)) was 2 (25.0) Number of subjects (%), the Insomnia (SAD Part B, 10 mg fed (n = 8)) was 0 Number of subjects (%) and the Nausea (SAD Part B, 10 mg fed (n = 8)) was 0 Number of subjects (%). The “Number of subjects with at least 1 TEAE” value (SAD Part B, 10 mg fed (n = 8)) was 6 (75.0) Number of subjects (%), the “Post lumbar puncture syndrome” value (SAD Part B, 10 mg fed (n = 8)) was 3 (37.5) Number of subjects (%) and the Pruritus (SAD Part B, 10 mg fed (n = 8)) was 0 Number of subjects (%). For the same compound, the Somnolence (SAD Part B, 10 mg fed (n = 8)) was 2 (25.0) Number of subjects (%), the “Total number of TEAEs” value (SAD Part B, 10 mg fed (n = 8)) was 10 and the Vomiting (SAD Part B, 10 mg fed (n = 8)) was 2 (25.0) Number of subjects (%). For the same compound, the incidence of nausea [1] was 21.1%, the incidence of vomiting [1] was 31.6% and the incidence of headache [2] was 25.0%. The incidence of nausea [2] was 25.0%, the Abnormal dreams [3] was 0 Number of subjects (%) and the Dizziness [3] was 0 Number of subjects (%). The Headache [3] was 1 (16.7) Number of subjects (%), the Insomnia [3] was 0 Number of subjects (%) and the Nausea [3] was 0 Number of subjects (%). For the same compound, the “Number of subjects with at least 1 TEAE” value [3] was 2 (33.3) Number of subjects (%), the “Post lumbar puncture syndrome” value [3] was 0 Number of subjects (%) and the Pruritus [3] was 0 Number of subjects (%). For the same compound, the Somnolence [3] was 0 Number of subjects (%), the “Total number of TEAEs” value [3] was 2 and the Vomiting [3] was 0 Number of subjects (%). For the same compound, the Abnormal dreams [4] was 0 Number of subjects (%), the Dizziness [4] was 0 Number of subjects (%) and the Headache [4] was 0 Number of subjects (%). The Insomnia [4] was 0 Number of subjects (%), the Nausea [4] was 1 (16.7) Number of subjects (%) and the “Number of subjects with at least 1 TEAE” value [4] was 4 (66.7) Number of subjects (%). The “Post lumbar puncture syndrome” value [4] was 0 Number of subjects (%), the Pruritus [4] was 0 Number of subjects (%) and the Somnolence [4] was 1 (16.7) Number of subjects (%). For the same compound, the “Total number of TEAEs” value [4] was 6, the Vomiting [4] was 2 (33.3) Number of subjects (%) and the Abnormal dreams [5] was 0 Number of subjects (%). The Dizziness [5] was 0 Number of subjects (%), the Headache [5] was 1 (20.0) Number of subjects (%) and the Insomnia [5] was 0 Number of subjects (%). For the same compound, the Nausea [5] was 1 (20.0) Number of subjects (%), the “Number of subjects with at least 1 TEAE” value [5] was 3 (60.0) Number of subjects (%) and the “Post lumbar puncture syndrome” value [5] was 0 Number of subjects (%). The Pruritus [5] was 0 Number of subjects (%), the Somnolence [5] was 0 Number of subjects (%) and the “Total number of TEAEs” value [5] was 4. The Vomiting [5] was 1 (20.0) Number of subjects (%), the Abnormal dreams [6] was 0 Number of subjects (%) and the Dizziness [6] was 0 Number of subjects (%). The Headache [6] was 1 (14.3) Number of subjects (%), the Insomnia [6] was 0 Number of subjects (%) and the Nausea [6] was 3 (42.9) Number of subjects (%). For the same compound, the “Number of subjects with at least 1 TEAE” value [6] was 5 (71.4) Number of subjects (%), the “Post lumbar puncture syndrome” value [6] was 0 Number of subjects (%) and the Pruritus [6] was 0 Number of subjects (%). For the same compound, the Somnolence [6] was 0 Number of subjects (%), the “Total number of TEAEs” value [6] was 11 and the Vomiting [6] was 4 (57.1) Number of subjects (%). For the same compound, the Abnormal dreams [7] was 0 Number of subjects (%), the Dizziness [7] was 0 Number of subjects (%) and the Headache [7] was 1 (33.3) Number of subjects (%). The Insomnia [7] was 0 Number of subjects (%), the Nausea [7] was 1 (33.3) Number of subjects (%) and the “Number of subjects with at least 1 TEAE” value [7] was 1 (33.3) Number of subjects (%). The “Post lumbar puncture syndrome” value [7] was 0 Number of subjects (%), the Pruritus [7] was 0 Number of subjects (%) and the Somnolence [7] was 0 Number of subjects (%). For the same compound, the “Total number of TEAEs” value [7] was 3, the Vomiting [7] was 0 Number of subjects (%) and the Abnormal dreams [8] was 0 Number of subjects (%). The Dizziness [8] was 0 Number of subjects (%), the Headache [8] was 2 (10.5) Number of subjects (%) and the Insomnia [8] was 0 Number of subjects (%). For the same compound, the Nausea [8] was 4 (21.1) Number of subjects (%), the “Number of subjects with at least 1 TEAE” value [8] was 11(57.9) Number of subjects (%) and the “Post lumbar puncture syndrome” value [8] was 0 Number of subjects (%). The Pruritus [8] was 0 Number of subjects (%), the Somnolence [8] was 1 (5.3) Number of subjects (%) and the “Total number of TEAEs” value [8] was 19. For the same compound, the Vomiting [8] was 6 (31.6) Number of subjects (%), the Abnormal dreams [9] was 0 Number of subjects (%) and the Dizziness [9] was 0 Number of subjects (%). The Headache [9] was 2 (25.0) Number of subjects (%), the Insomnia [9] was 0 Number of subjects (%) and the Nausea [9] was 2 (25.0) Number of subjects (%). The “Number of subjects with at least 1 TEAE” value [9] was 4 (50.0) Number of subjects (%), the “Post lumbar puncture syndrome” value [9] was 0 Number of subjects (%) and the Pruritus [9] was 0 Number of subjects (%). For the same compound, the Somnolence [9] was 0 Number of subjects (%), the “Total number of TEAEs” value [9] was 7 and the Vomiting [9] was 1 (12.5) Number of subjects (%). For the same compound, the “reports of severe nausea” value [10] was 1 report, the “reports of severe vomiting” value [10] was 2 reports and the “dose up to which a single dose was tolerated” value (SAD, single oral dose TS‐134 solution) was “up to 10 mg”. The “deaths or serious adverse events” value (both studies) was “no deaths or serious adverse events”.
